Data as given in patent publication EP0560267B1, “Isosteric antiherpes peptide derivatives” (BOEHRINGER INGELHEIM (CANADA) LTD., priority 1992, dated 1993).
Like-named read-outs stand apart in the source and are kept apart here.

Key:
HSV-2 = test: Inhibition of Herpes Simplex Virus (HSV-2) replication in cell culture; format: cell-based
Method: Inhibition of Herpes Simplex Virus (HSV-2) Replication in Cell Culture
BHK-21/C13 cells (ATCC CCL 10) are incubated for two days in 150 cm^2 T-flasks (1.5 x 10^6 cells/flask) with alpha-MEM medium (Gibco Canada Inc., Burlington, Ontario, Canada) supplemented with 8% (v/v) fetal bovine serum (FBS, Gibco Canada Inc.). The cells are trypsinized and then transferred to fresh media in a 24 well plate to give 2.5 x 10^5 cells in 750 µL of media per well. The cells are incubated at 37° for a period of 6 h to allow them to adhere to the plate. Thereafter, the cells are washed once with 500 µL of alpha-MEM supplemented with 0.5% (v/v) FBS and then incubated with 750 µL of the same media (low serum) for 3 days. After this period of serum starvation, the low serum medium is removed and the cells are incubated in 500 µL of BBMT for 2 to 3 hours. {BBMT medium is described by P. Brazeau et al., Proc. Natl. Acad. Sci. USA, 79, 7909 (1982).} Thereafter, the cells are infected with HSV-2 (multiplicity of infection = 0.02 PFU/cell) in 100 µL of BBMT medium. (Note: The HSV-2 used was strain HG-52, see Y. Langelier and G. Buttin, J. Gen. Virol., 57, 21 (1981); the virus was stored at -80°.) Following 1 h of virus adsorption at 37°, the media is removed and the cells are washed with BBMT (3 X 250 µL). The cells in each well are incubated with or without (control) appropriate concentrations of the test agent dissolved in 200 µL of BBMT medium. After 29 h of incubation at 37°, the infected cells are harvested by first freezing the plate at -80°, followed by thawing. The cells in each well are scraped off the surface of the well with the help of the melting ice fragments. After complete thawing, the cell suspensions are collected and each well is rinsed with 150 µL of BBMT medium. The viral sample (suspension plus washing) is sonicated gently for 4 min at 4°. Cell debris are removed by centrifugation (1000 times gravity for 10 minutes at 4°). The supernatant is collected and stored at -80° until determination of viral titer.
Viral titration was performed by a modification of the colorimetric assay method of M. Langlois et al., Journal of Biological Standardization, 14, 201 (1986).
More specifically, in a similar manner as described above, BHK-21/C13 cells are trypsinized and transferred to fresh media in a 96 well microtiter plate to give 20,000 cells in 100 µL of media per well. The cells in the prepared plate are incubated at 37° for 2 h. During that time, the viral sample is thawed and sonicated gently for 15 seconds, and log dilutions of the sample are prepared (1/5 sequential: 50 µL of the sample plus 200 µL of BBMT medium, sequential dilutions being done with a multichannel pipette.
On completion of the above 2 hour incubation of the BHK-21/C13 cells, the media is replaced with alpha-MEM medium supplemented with 3% (v/v) FBS. The cells are now ready to be infected with the various sample dilutions of virus. Aliquots (50 µL) of the various dilutions are transferred into the appropriate wells of the plate. The resulting infected cells are incubated for 2 days at 37°. Then 50 µL of a 0.15% (v/v) solution of neutral red dye in Hank's Balanced Salt Solution (pH 7.3, Gibco Canada Inc.) is added to each well. The prepared plate is incubated for 45 min at 37°. Medium from each well is then aspirated and the cells are washed once with 200 µL of Hank's Balanced Salt Solution. […]

[1] = target: T1, HSV-1 ribonucleotide reductase (Human herpesvirus 1, UniProt P08543); test: Inhibition of Herpes Simplex Virus (HSV-1) ribonucleotide reductase; format: biochemical
T1 construct: HSV-1 ribonucleotide reductase (partially purified) was obtained from quiescent BHK-21/C13 cells infected with strain F HSV-1 virus; made in house; host or cells: quiescent BHK-21/C13 cells infected with HSV-1 strain F (virus-encoded enzyme, partially purified)
Source text: Inhibition of Herpes Simplex Virus (HSV-1) Ribonucleotide Reductase
• a) Preparation of Enzyme HSV-1 ribonucleotide reductase (partially purified) was obtained from quiescent BHK-21/C13 cells infected with strain F HSV-1 virus at 10 plaque forming units/cell as described by E.A. Cohen et al., J. Gen. Virol., 66, 733 (1985). • b) Assay and Results for Exemplified Peptides By following the procedure described by P. Gaudreau et al., J. Biol, Chem., 262, 12413 (1987), the assay results listed in the following Table I were obtained. The assay result for each exemplified compound of formula 1 is expressed as the concentration of the compound producing 50% of the maximal inhibition (IC50) of enzyme activity. The number of units of the enzyme preparation used in each assay was constant, based on the specific activity of the enzyme preparation. The results are relative to the activity obtained in control experiments without the test compound and represent the mean of four assays that varied less than 10% with each other.

[2] = Human alphaherpesvirus 2, BHK21 (C13), 29 h, Table II, BHK-21/C13 cells, HSV-2 strain HG-52, 0.02 PFU/cell, 29 h incubation, read-out: EC50
[3] = Human alphaherpesvirus 2, Table IV, cell culture assay of example 11, read-out: EC50
[4] = Table I, partially purified enzyme from BHK-21/C13 cells infected with strain F HSV-1, mean of four assays
[5] = Human alphaherpesvirus 2, BHK21 (C13), 29 h

T1 sequence (P08543 whole entry): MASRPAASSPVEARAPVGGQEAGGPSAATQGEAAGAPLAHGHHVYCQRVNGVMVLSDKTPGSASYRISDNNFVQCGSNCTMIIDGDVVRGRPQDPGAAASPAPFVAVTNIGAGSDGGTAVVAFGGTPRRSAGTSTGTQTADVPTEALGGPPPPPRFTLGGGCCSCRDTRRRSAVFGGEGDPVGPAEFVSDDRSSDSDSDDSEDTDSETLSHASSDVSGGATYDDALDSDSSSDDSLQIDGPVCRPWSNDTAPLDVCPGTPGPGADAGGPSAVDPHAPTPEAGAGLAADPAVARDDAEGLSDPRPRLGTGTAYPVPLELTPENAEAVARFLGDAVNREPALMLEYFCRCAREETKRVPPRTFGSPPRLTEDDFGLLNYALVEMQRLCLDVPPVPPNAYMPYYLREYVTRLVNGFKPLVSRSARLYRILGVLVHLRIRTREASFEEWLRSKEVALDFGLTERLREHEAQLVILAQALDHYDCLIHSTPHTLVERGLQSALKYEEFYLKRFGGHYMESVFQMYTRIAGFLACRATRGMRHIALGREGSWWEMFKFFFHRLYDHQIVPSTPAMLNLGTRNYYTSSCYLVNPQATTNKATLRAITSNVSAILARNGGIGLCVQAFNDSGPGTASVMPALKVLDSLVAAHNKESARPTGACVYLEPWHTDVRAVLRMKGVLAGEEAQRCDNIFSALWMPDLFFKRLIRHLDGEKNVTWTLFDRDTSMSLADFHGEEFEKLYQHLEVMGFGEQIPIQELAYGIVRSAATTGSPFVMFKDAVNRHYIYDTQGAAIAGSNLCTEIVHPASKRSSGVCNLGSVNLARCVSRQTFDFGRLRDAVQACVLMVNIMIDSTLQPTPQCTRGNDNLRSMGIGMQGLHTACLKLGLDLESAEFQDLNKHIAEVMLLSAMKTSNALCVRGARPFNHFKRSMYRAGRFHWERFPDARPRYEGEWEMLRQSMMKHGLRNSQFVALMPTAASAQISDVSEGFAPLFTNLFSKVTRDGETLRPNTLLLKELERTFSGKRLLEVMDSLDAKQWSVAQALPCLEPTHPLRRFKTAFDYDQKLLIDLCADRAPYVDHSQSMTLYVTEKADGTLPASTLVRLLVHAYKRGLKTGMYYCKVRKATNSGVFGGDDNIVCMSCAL

Molecule: CCCC1(NC(=O)N[C@H](C(=O)C[C@@H](CC(=O)C(C)(C)C)C(=O)N[C@H](C(=O)NCC(C)(C)C)C2(C(=O)O)CCCC2)C(C)(C)C)CCCC1 [(1-propylcyclopentyl)aminocarbonyl-Tbg-CH2-(R)-CH(CH2C(O)CMe3)C(O)-Asp(cyPn)-NHCH2CMe3]
- EC50 (HSV-2; [2]): 40 µM

Molecule: C=CCC(CC=C)NC(=O)NC(C(=O)CC(CC(=O)C(C)(C)C)C(=O)NC(C(=O)NCC(C)(C)C)C1(C(=O)O)CCCC1)C(C)(C)C [(CH2=CHCH2)2-CHNHC(O) / NHCH2CMe3, (CH2=CHCH2)2-CHNHC(O)-Tbg-CH2-(R)-CH(CH2C(O)CMe3)C(O)-Asp(cyPn)-NHCH2CMe3]
- EC50 (HSV-2; [3]): 100 µM
- IC50 ([1]; Table IV, assay of example 10): 0.37 µM

Molecule: C=CCC(CC=C)NC(=O)NC(C(=O)CC(CC(=O)C(C)(C)C)C(=O)NC(C(=O)NC(C)C(C)(C)C)C1(C(=O)O)CCCC1)C(C)(C)C [(CH2=CHCH2)2-CHNHC(O)-Tbg-CH2-(R)-CH(CH2C(O)CMe3)C(O)-Asp(cyPn)-NH-(R)-CH(Me)CMe3]
- EC50 (HSV-2; [3]): 48 µM
- IC50 ([1]; Table IV, assay of example 10): 0.32 µM

Molecule: CCCCC(CC)NC(=O)NC(C(=O)CC(CC(=O)C(C)(C)C)C(=O)NC(C(=O)NCC(C)(C)C)C1(C(=O)O)CCCC1)C(C)(C)C [(R,S)-EtBuCH-NHC(O) / NHCH2CMe3, (R,S)-EtBuCH-NHC(O)-Tbg-CH2-(R)-CH(CH2C(O)CMe3)C(O)-Asp(cyPn)-NHCH2CMe3]
- EC50 (HSV-2; [3]): 35 µM
- IC50 ([1]; Table IV, assay of example 10): 0.26 µM

Molecule: CCC(CC)NC(=O)NC(C(=O)CC(CC(=O)C(C)(C)C)C(=O)NC(C(=O)NC(CC(C)(C)C)C(N)=O)C1(C(=O)O)CCCC1)C(C)(C)C [Et2CHNHC(O)-Tbg-CH2-(R)-CH(CH2C(O)-CMe3)C(O)-Asp(cyPn)-γMeLeu-NH2]
- IC50 [1, 4]: 0.22 µM

Molecule: CCC(CC)NC(=O)NC(C(=O)CC(CC(=O)C(C)(C)C)C(=O)NC(C(=O)NC(CC(C)(C)C)C(=O)O)C1(C(=O)O)CCCC1)C(C)(C)C [Et2CHNHC(O)-Tbg-CH2-(R)-CH(CH2C(O)-CMe3)C(O)-Asp(cyPn)-γMeLeu-OH]
- IC50 [1, 4]: 0.12 µM

Molecule: CCC(CC)NC(=O)NC(C(=O)CC(CC(=O)C(C)(C)C)C(=O)NC(C(=O)NCC(C)(C)C)C(C)C(=O)O)C(C)(C)C [Et2CHNHC(O)-Tbg-CH2-(R)-CH(CH2C(O)-CMe3)C(O)-Asp{(R)-Me}-NHCH2CMe3]
- IC50 [1, 4]: 0.2 µM

Molecule: CCCC(CC)(CCC)NC(=O)N[C@H](C(=O)C[C@@H](CC(=O)C(C)(C)C)C(=O)N[C@H](C(=O)NCC(C)(C)C)C1(C(=O)O)CCCC1)C(C)(C)C [EtPr2CNHC(O) / NHCH2CMe3, EtPr2CNHC(O)-Tbg-CH2-(R)-CH(CH2C(O)CMe3)C(O)-Asp(cyPn)-NHCH2CMe3]
- EC50 (HSV-2; [3]): 16 µM

Molecule: CC(C)C(C(=O)NC(C(=O)CC(CC(=O)C(C)(C)C)C(=O)NC(C(=O)NCC(C)(C)C)C1(C(=O)O)CCCC1)C(C)(C)C)N(C)C(=O)CCc1ccccc1 [PhCH2CH2C(O)-(N-Me)Val-Tbg-CH2-(R)-CH(CH2C(O)CMe3)C(O)-Asp(cyPn)-NHCH2CMe3]
- IC50 [1, 4]: 0.33 µM

Molecule: CC(C)[C@@H](C(=O)N[C@H](C(=O)C[C@@H](CC(=O)C(C)(C)C)C(=O)N[C@H](C(=O)N[C@@H](CC(C)(C)C)C(N)=O)C1(C(=O)O)CCCC1)C(C)(C)C)N(C)C(=O)CCc1ccccc1 [PhCH2CH2C(O)-(N-Me)Val-Tbg-CH2-(R)-CH(CH2C(O)CMe3)C(O)-Asp(cyPn)-γMeLeu-NH2]
- EC50 (HSV-2; [5]): 60 µM

Molecule: CC(C)[C@@H](C(=O)N[C@H](C(=O)C[C@@H](CC(=O)C(C)(C)C)C(=O)N[C@H](C(=O)N[C@@H](CC(C)(C)C)C(=O)O)C1(C(=O)O)CCCC1)C(C)(C)C)N(C)C(=O)CCc1ccccc1 [PhCH2CH2C(O)-(N-Me)Val-Tbg-CH2-(R)-CH(CH2C(O)CMe3)C(O)-Asp(cyPn)-γMeLeu-OH]
- EC50 (HSV-2; [5]): 65 µM

Molecule: CC(C)C(C(=O)NC(C(=O)CC(CC(=O)C(C)(C)C)C(=O)NC(C(=O)NCC(C)(C)C)C(C)C(=O)O)C(C)(C)C)N(C)C(=O)CCc1ccccc1 [PhCH2CH2C(O)-(N-Me)Val-Tbg-CH2-(R)-CH(CH2C(O)CMe3)C(O)-Asp{(R)-Me}-NHCH2CMe3]
- IC50 [1, 4]: 0.33 µM

Molecule: CC(C)C(C(=O)NC(C(=O)CC(CC(=O)C1CCCC1)C(=O)NC(C(=O)NCC(C)(C)C)C1(C(=O)O)CCCC1)C(C)(C)C)N(C)C(=O)CCc1ccccc1 [PhCH2CH2C(O)-(N-Me)Val-Tbg-CH2-(R)-CH{CH2C(O)-(cyclopentyl)}C(O)-Asp-(cyPn)-NHCH2CMe3]
- IC50 [1, 4]: 0.32 µM

Molecule: CCCC(CCC)NC(=O)NC(C(=O)CC(CC(=O)C(C)(C)C)C(=O)NC(C(=O)NC1CCCCC1C)C1(C(=O)O)CCCC1)C(C)(C)C [Pr2CHNHC(O) / trans-NH-(2-methyl-cyclohexyl)] [Pr2CHNHC(O)-Tbg-CH2-(R)-CH(CH2C(O)CMe3)C(O)-Asp(cyPn)-trans-NH-(2-methyl-cyclohexyl)]
- EC50 (HSV-2; Table IV, cell culture assay of example 11, read-out: EC50): 60 µM

Molecule: CCCC(CCC)NC(=O)NC(C(=O)CC(CC(=O)C(C)(C)C)C(=O)NC(C(=O)NC(CC(C)(C)C)C(=O)O)C1(C(=O)O)CCCC1)C(C)(C)C [Pr2CHNHC(O)-Tbg-CH2-(R)-CH(CH2C(O)-CMe3)C(O)-Asp(cyPn)-γMeLeu-OH]
- IC50 [1, 4]: 0.15 µM

Molecule: CCCC(CCC)NC(=O)NC(C(=O)CC(CC(=O)C(C)(C)C)C(=O)NC(C(=O)NC1CCCCC1C)C1(C(=O)O)CCCC1)C(C)(C)C [Pr2CHNHC(O)-Tbg-CH2-(R)-CH(CH2C(O)CMe3)C(O)-Asp(cyPn)-trans-NH-(2-methyl-cyclohexyl)]
- IC50 ([1]; Table IV, assay of example 10): 0.69 µM

Molecule: CCCC(CCC)NC(=O)N[C@H](C(=O)C[C@@H](CC(=O)C1CCCC1)C(=O)N[C@H](C(=O)NCC(C)(C)C)C1(C(=O)O)CCCC1)C(C)(C)C [Pr2CHNHC(O)-Tbg-CH2-(R)-CH{CH2C(O)(cyclopentyl)}C(O)-Asp(cyPn)-NHCH2CMe3]
- EC50 (HSV-2; [2]): 30 µM

Molecule: CC(C)[C@@H](C(=O)N[C@H](C(=O)C[C@@H](CC(=O)C(C)(C)C)C(=O)N[C@H](C(=O)N[C@H](CO)CC(C)(C)C)C1(C(=O)O)CCCC1)C(C)(C)C)N(C)C(=O)CCc1ccccc1 [Title Compound of Example 6, PhCH2CH2C(O)-(N-Me)Val-Tbg-CH2(R)-CH(CH2C(O)CMe3)C(O)-Asp(cyPn)-γMeLeucinol]
- EC50 (HSV-2; Human alphaherpesvirus 2, BHK21 (C13)): 19 µM
- EC50 (HSV-2; [5]): 15 µM

Molecule: CCC(CC)NC(=O)NC(C(=O)CC(CC(=O)C(C)(C)C)C(=O)NC(C(=O)NC(CO)CC(C)(C)C)C1(C(=O)O)CCCC1)C(C)(C)C [Title Compound of Example 7, Et2CHNHC(O)-Tbg-CH2-(R)-CH(CH2C(O)CMe3)CO-Asp(cyPn)-γMeLeucinol]
- IC50 [1, 4]: 0.15 µM

Molecule: Nc1nc2c(ncn2COCCO)c(=O)[nH]1 [acyclovir, reference compound]
- EC50 (HSV-2; Human alphaherpesvirus 2, BHK21 (C13), Table III, agent alone, BHK-21/C13 cells, HSV-2 strain HG-52, read-out: EC50): 3.5 µM
- action of the combination of acyclovir and the peptide of formula 1 (HSV-2; combination of acyclovir with the title peptide of example 6, EC50's lower than acyclovir alone, isobole method, Figure 1): synergistic action

Molecule: Pr2CHNHC(O)-Tbg-CH2-(R)-CH-(CH2C(O)CH2CMe3)C(O)-Asp(cyPn)-Leu-OH
- EC50 (HSV-2; Table V, cell culture assay of example 11, read-out: EC50): 80 µM
